From patent US20200093821A1, “Pharmaceutical Compositions of a Benzothiophene Compound” (Hexal AG, priority 2016, published 2020)

How the values were obtained:
[1] = UV irradiation of suspensions in oils, HPLC analysis; format: physicochemical; conditions: irradiated 4 hours; for Brexpiprazole (area) / Compound I (area) / Compound II (area): HPLC
Procedure: [table] Suspensions of brexpiprazole anhydrate or brexpiprazole dihydrate (about 10 mg per experiment) in different oils (about 105 mg per suspension) were prepared and irradiated for 4 hours.

[2] = target: T1, serotonin 5-HT1A receptors (Homo sapiens, UniProt P08908); conditions: cited from earlier work
T1 sequence (P08908 1-422): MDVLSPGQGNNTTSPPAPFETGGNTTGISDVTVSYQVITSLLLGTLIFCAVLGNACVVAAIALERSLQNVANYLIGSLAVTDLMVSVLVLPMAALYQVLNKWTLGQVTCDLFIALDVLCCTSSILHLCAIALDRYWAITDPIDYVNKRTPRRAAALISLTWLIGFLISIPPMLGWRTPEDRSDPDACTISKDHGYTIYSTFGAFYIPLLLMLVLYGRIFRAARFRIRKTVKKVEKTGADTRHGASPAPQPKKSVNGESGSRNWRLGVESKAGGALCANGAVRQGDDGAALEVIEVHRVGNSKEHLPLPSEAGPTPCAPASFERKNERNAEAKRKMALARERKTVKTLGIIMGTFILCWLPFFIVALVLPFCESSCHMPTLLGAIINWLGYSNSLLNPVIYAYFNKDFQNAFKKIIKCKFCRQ

[3] = target: serotonin 5-HT2A receptors (Homo sapiens, UniProt P28223); conditions: cited from earlier work
dopamine D2 receptors = dopamine D2 receptors (Homo sapiens, UniProt P14416); conditions: cited from earlier work
[4] = UV lamp irradiation of brexpiprazole solution in toluene/methanol; format: physicochemical
Procedure: For the structure determination of the compound of formula II in Example 2 it was therefore necessary to produce larger quantities of that compound. […] The suspension was heated to 50° C. After stirring for 10 minutes, a clear solution was obtained. The solution was put into a transparent glass vial and irradiated for 18 h by a UV lamp (UVHQ 250 Z by “UV Technik Speziallampen”; radiation strength UVC/UVB/UVA: 38 W at 200 nm-280 nm; 20 W at 280 nm-315 nm; 18 W at 315 nm-400 nm). A light brown, clear solution was obtained. A mixture of brexpiprazole and compound II was obtained (19:81 area %).

[5] = UV exposure of solid brexpiprazole forms (Atlas Suntester XLS+); format: physicochemical; conditions: 60 h Suntester
From the text: Brexpiprazole anhydrate and brexpiprazole dihydrate were respectively exposed to UV-radiation using an appropriate illumination device (Atlas Suntester XLS+) at 250 W/m^2 for 60 hrs, which corresponds to a total UV light intensity of […].

[6] = suspension in castor oil, listed as Brx. Anhydrate
[7] = suspension in peanut oil, listed as Brx. Anhydrate
[8] = toluene/methanol solution, UV lamp 18 h
[9] = suspension in castor oil, listed as Brx. Dihydrate
[10] = suspension in peanut oil, listed as Brx. Dihydrate

Chain of serotonin 5-HT2A receptors (P28223 whole entry): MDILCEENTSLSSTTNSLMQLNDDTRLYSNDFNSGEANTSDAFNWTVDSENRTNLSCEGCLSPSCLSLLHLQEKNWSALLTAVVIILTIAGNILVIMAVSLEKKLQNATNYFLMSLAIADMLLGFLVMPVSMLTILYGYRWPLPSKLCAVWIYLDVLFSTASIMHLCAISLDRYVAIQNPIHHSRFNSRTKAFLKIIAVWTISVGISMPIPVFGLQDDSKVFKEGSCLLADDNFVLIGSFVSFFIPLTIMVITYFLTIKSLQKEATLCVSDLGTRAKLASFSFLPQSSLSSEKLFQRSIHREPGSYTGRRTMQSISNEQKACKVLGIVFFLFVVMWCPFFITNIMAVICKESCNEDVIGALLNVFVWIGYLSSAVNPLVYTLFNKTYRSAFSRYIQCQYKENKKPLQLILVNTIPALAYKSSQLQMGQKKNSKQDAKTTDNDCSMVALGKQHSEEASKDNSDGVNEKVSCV
Chain of dopamine D2 receptors (P14416 whole entry): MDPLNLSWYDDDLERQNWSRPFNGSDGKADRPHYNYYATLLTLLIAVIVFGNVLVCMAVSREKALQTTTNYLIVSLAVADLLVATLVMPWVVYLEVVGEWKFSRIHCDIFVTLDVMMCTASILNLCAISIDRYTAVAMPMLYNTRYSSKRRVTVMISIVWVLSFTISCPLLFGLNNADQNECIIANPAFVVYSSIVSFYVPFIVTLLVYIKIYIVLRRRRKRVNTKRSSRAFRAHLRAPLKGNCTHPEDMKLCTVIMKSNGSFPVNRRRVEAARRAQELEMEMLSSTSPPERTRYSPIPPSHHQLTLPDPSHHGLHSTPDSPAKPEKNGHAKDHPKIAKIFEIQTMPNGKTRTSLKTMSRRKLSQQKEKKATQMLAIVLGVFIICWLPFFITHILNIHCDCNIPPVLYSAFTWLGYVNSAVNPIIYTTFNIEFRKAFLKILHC

Structure (SMILES): O=c1ccc2ccc(OCCCCN3CCN(c4cccc5sccc45)CC3)cc2[nH]1 [Brexpiprazole Anhydrate]
- Brexpiprazole (area) [1, 6]: 99.6%
- Compound I (area) [1, 6]: 0.0%
- Compound II (area) [1, 6]: 0.4%
- Brexpiprazole (area) ([1]; suspension in corn oil): 99.8%
- Compound I (area) ([1]; suspension in corn oil): 0.0%
- Compound II (area) ([1]; suspension in corn oil): 0.2%
- Brexpiprazole (area) [1, 7]: 99.8%
- Compound I (area) [1, 7]: 0.0%
- Compound II (area) [1, 7]: 0.2%

Structure (SMILES): O=c1ccc2ccc(OCCCCN3CCN(c4cccc5sccc45)CC3)cc2[nH]1 [Brexpiprazole, 7-[4-[4-(1-Benzothiophen-4-yl)piperazin-1-yl]butoxy]quinolin-2(1H)-one]
- activity at serotonin 5-HT1A receptors [2]: partial agonist activity
- activity at serotonin 5-HT2A receptors [3]: antagonist activity
- activity at dopamine D2 receptors (dopamine D2 receptors): partial agonist activity
- sensitivity to UV-radiation vs brexpiprazole anhydrate ([4]; brexpiprazole in solution): significantly more sensitive
- stability in control experiment ([4]; solution protected from UV light, vial wrapped in aluminum foil): remained stable
- brexpiprazole remaining in mixture [4, 8]: 19 area %
- compound II formed in mixture [4, 8]: 81 area %

Structure (SMILES): O=c1ccc2ccc(OCCCCN3CCN(c4cccc5sccc45)CC3)cc2[nH]1 [Brexpiprazole Dihydrate]
- sensitivity to UV-induced dimerization vs anhydrate form [5]: significantly more sensitive
- sensitivity to UV-induced dimerization vs brexpiprazole anhydrate ([1]; oil suspensions): more sensitive
- Brexpiprazole (area) [1, 9]: 61.7%
- Compound I (area) [1, 9]: 35.1%
- Compound II (area) [1, 9]: 3.2%
- Brexpiprazole (area) ([1]; suspension in corn oil): 64.9%
- Compound I (area) ([1]; suspension in corn oil): 32.2%
- Compound II (area) ([1]; suspension in corn oil): 3.0%
- Brexpiprazole (area) [1, 10]: 64.3%
- Compound I (area) [1, 10]: 32.4%
- Compound II (area) [1, 10]: 3.3%
